We go through 7 compounds from US20060128757A1, “Pyridine derivatives useful as cyclooxygenase inhibitor” (Astellas Pharma Inc., priority 2001, published 2006).

Read-outs that look alike come from different tables or passages of the source.

In data set [1] the test system is stomachs (gastric lesions) of rats. Description: Gastric ulcerogenic activity in rats. Format: in vivo, Male Sprague-Dawley rats. Conditions: oral, 5 h before autopsy, rats fasted 24 h. The procedure: Male Sprague-Dawley rats were used after a 24 h fast. Drugs were orally administered to groups of 10 rats 5 h before autopsy. The stomachs were macroscopically inspected and scored as follows: 0, no evidence of gastric lesions; 1, spotty submucosal hemorrhage or appearance of erosion; 3, widespread adherence of blood and large areas of submucosal hemorrhage or one to four small ulcers; 4, more than four small ulcers or one large ulcer; 5, numerous large ulcers.

Data set [2] relates to Adjuvant Arthritis in Rats. Description: Analgesic activity: effect on adjuvant arthritis in rats (Randall-Selitto). Particulars: ratio of threshold pressure of treated vs non-treated rats. The data set is classed as in vivo, Lewis rats.
Another data set has as its target T1, COX-I (Homo sapiens, UniProt P23219).
T1 construct: Fresh blood was collected by syringe without anticoagulants from volunteers with consent; endogenous in cells; host or cells: fresh human whole blood from volunteers, left to clot (TXB2 read-out)
In words: Whole blood assay for COX-I (TXB2 production). The data set is classed as cell-based.

The next data set deals with T2, COX-II (Homo sapiens, UniProt P35354).
T2 construct: lipopolysaccharide for 24 hr at 37° C. for induction of COX-II; endogenous in cells; host or cells: heparinized fresh human whole blood from volunteers, LPS-stimulated for 24 hr (PGE2 read-out)
T2 sequence (P35354 18-604): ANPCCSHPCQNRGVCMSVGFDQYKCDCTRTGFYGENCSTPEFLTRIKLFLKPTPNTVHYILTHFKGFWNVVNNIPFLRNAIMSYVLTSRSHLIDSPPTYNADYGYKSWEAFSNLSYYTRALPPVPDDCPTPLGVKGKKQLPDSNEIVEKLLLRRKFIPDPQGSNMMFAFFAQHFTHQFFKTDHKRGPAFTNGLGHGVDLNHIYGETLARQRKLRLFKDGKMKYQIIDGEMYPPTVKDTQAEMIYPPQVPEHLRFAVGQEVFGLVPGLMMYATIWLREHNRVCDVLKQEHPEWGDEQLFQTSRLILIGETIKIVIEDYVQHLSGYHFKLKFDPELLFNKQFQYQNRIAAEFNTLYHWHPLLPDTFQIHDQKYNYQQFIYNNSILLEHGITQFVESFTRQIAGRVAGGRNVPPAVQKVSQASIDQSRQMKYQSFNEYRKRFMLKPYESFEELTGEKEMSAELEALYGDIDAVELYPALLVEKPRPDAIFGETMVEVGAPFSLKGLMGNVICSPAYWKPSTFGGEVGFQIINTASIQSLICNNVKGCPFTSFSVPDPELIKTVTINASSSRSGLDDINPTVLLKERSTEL
In words: Whole blood assay for COX-II (LPS-induced PGE2 production). Format: cell-based.

Data set [3] relates to Stretching responses in mice. In words: Stretching test (acetic acid i.p.). The data set is classed as in vivo, Male ddY mice. Particulars: 10 mg/Kg orally, acetic acid i.p. 1 h after drug. How it is done:
Male ddY mice were used after a 24 h fast. Drugs were orally administered to groups of 10 mice. Mice were injected intraperitoneally (i.p.) with 0.2 ml/10 g of 0.6% acetic acid 1 h after the drug administration and then placed singly in a plastic animal cage. Stretching responses, defined as constriction of the abdomen with stretching of the hind limbs, were counted for 10 min from 3 min after the i.p. injection of acetic acid.

Where [4] appears, read: 1 hr at 37° C., read-out: COX-I IC50.
The mark [5] stands for this setting: LPS 24 hr, read-out: COX-II IC50.

T1 sequence (P23219 24-599): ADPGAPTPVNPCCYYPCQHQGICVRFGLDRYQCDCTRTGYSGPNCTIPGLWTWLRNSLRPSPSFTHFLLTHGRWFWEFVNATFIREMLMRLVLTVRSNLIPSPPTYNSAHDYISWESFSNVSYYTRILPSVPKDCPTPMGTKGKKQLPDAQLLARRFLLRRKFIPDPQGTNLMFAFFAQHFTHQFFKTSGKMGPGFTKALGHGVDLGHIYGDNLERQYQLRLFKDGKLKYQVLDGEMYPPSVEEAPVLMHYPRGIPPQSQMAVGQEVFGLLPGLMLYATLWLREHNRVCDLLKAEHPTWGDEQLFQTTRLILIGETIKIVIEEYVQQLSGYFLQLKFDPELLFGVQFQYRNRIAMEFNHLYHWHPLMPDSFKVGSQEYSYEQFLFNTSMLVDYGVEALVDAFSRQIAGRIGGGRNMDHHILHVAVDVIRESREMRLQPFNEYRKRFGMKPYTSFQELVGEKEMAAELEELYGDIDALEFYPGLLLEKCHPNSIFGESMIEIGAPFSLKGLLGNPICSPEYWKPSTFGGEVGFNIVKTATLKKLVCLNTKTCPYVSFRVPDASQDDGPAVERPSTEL
Method for COX-II: Fresh blood was collected in heparinized tubes by syringe from volunteers with consent. The subjects had no apparent inflammatory conditions and had not taken any medication for at least 7 days prior to blood collection. 500 μl aliquots of human whole blood were incubated with either 2 μl dimethyl sulfoxide vehicle or 2 μl of a test compound at final concentrations for 15 min at 37° C. This was followed by incubation of the blood with 10 μl of 5 mg/ml lipopolysaccharide for 24 hr at 37° C. for induction of COX-II. Appropriate PBS treatments (no LPS) were used as blanks. At the end of the incubation, the blood was centrifuged at 6000×g for 5 min at 4° C. to obtain plasma. A 100 μl aliquot of plasma was mixed with 400 μl methanol for protein precipitation. The supernatant was obtained by centrifuging at 6000×g for 5 min at 4° C. and was assayed for prostagrandin E2 (PGE2) using a radioimmunoassay kit after conversion of PGE2 to its methyl oximate derivative according to the manufacturer's procedure. For a test compound, the results were expressed as percent inhibition of PGE2 production relative to control incubations containing dimethyl sulfoxide vehicle. The data were analyzed by that a test compound at the indicated concentrations was changed log value and was applied simple linear regression. IC50 value was calculated by least squares method.

In the case of `COc1ccc(-c2noc(CC(=O)O)c2-c2ccc(OC)cc2)cc1` [H, Mofezolac], the “Gastric ulcerogenic activity (Non-toxic dose)” value in data set [1] is 10 mg/kg.

In the case of `CC(C(=O)O)c1cccc(C(=O)c2ccccc2)c1` (centres unmarked) [G, Ketoprofen], the “Gastric ulcerogenic activity (Non-toxic dose)” value in data set [1] is 3.2 mg/kg.

Compound `COc1ccc(-c2cc(C#N)cnc2-c2ccc(OC)cc2)cc1` [Example 4, 5-(4-methoxyphenyl)-6-(4-methoxyphenyl)-pyridine-3-carbonitrile] came in with a melting point of 107 to 108 °C. In data set [2] (3.2 mg/Kg, 2 hr after administration), the “Analgesic activity in adjuvant arthritis -3.2 mg/Kg-” value was 1.57. The “The coefficient of analgesic” value in data set [2] (Dose 3.2 mg/kg, pain threshold 2 hr after administration, ratio of 1.5 = effective dose) was more than 1.5. For the same compound, at COX-I (setting [4]), the IC50 was less than 0.1 µM. For the same compound, on COX-I (Table 1, read-out: Whole blood assay (IC50: μM) COX-I), the IC50 turned out to be 0.017 µM. On COX-II (setting [5]), the IC50 is more than 1 µM. Besides, the IC50 at COX-II (Table 1, read-out: Whole blood assay (IC50: μM) COX-II) came out at 1.9 µM. For the same compound, in data set [3], the “Inhibiting activity in stretching test” value came out at 48%. Moreover, the “Gastric ulcerogenic activity (Non-toxic dose)” value in data set [1] is more than 100 mg/kg.

With `COc1ccc2c(c1)c(CC(=O)O)c(C)n2C(=O)c1ccc(Cl)cc1` [I, Indomethacin], in data set [1], the “Gastric ulcerogenic activity (Non-toxic dose)” value is 1 mg/kg.

As to `COc1ccc(-c2cc(C#N)c(OC)nc2-c2ccc(OC)cc2)cc1` [Example 6, 2-methoxy-5-(4-methoxyphenyl)-6-(4-methoxyphenyl)-pyridine-3-carbonitrile], the 50% inhibitory concentration (IC50) at COX-I (setting [4]) was less than 0.1 µM; at COX-II (setting [5]), more than 1 µM.

With `COc1ccc(-c2cc(C#N)c(Cl)nc2-c2ccc(OC)cc2)cc1` [Example 1-(3), 2-chloro-5-(4-methoxyphenyl)-6-(4-methoxyphenyl) pyridine-3-carbonitrile], the values for the IC50 at COX-I (setting [4]) and at COX-II (setting [5]) were less than 0.1 µM and more than 1 µM, respectively.

`O=C(O)Cc1ccccc1Nc1c(Cl)cccc1Cl` [J, Diclofenac]: the “Gastric ulcerogenic activity (Non-toxic dose)” value in data set [1] worked out at 3.2 mg/kg.

Broadly, the IC50 is the concentration that gives 50% inhibition. The term melting point denotes the temperature, or range, at which the solid turns liquid.
